Measurements from US6720313B1, “Biocidal composition containing phosphite ions” (Mattersmiths Holdings Limited, priority 1998, dated 2004).
Converted amounts (≈) assume the structure as drawn. Where two headings read alike, the source gives them in different places.

How the values were obtained:
[1] = metal oxinates; cited from earlier work
[2] = Procedure: These are prepared by addition of stoicheiometric quantities of precursors of the compounds concerned to produce the salt desired.
[3] = cited from earlier work
[4] = assay type: physicochemical
Description: We decreased the pH by addition of phosphorous acid.
We have achieved solubility of fenpropimorph of as much as 10% by weight. This high level of solubility remains when that active is also the presence of 10-20% of other biocides.

[5] = precipitation of solubilised biocides on addition of a higher pH solution; assay type: physicochemical; details: aqueous solutions, pH raised to greater than 5
Description: We carried out several studies, some in aqueous systems and others on wood subsequent to the biocide formulation being applied, wherein we applied a further solution with higher pH to increase the pH to greater than 5.

[6] = cited from earlier work; remark: listed apart in the source
[7] = acids including phosphorous acid; cited from earlier work
[8] = system: natural fungal inoculum on mini discs of Pinus radiata; assay: mini disc trial of fungicidal efficacy; assay type: cell-based; details: compared with untreated control
Procedure: For example, a mini disc trial, typically used to assess formulation efficacy, was used to establish relative efficacy of various formulations. Included in the trial were formulations using both phosphoric acid and phosphorous acid.
These examples were then diluted in water to produce stable solutions and then tested against a natural fungal inoculum on mini discs of Pinus radiata to determine fungicidal efficacy. The following table, Table 5, illustrates the relative performance of each biocide after 3 weeks in an incubator.
These formulations were then diluted and tested using the mini disc method. Also included was an industry standard based on the formulation of U.S. Pat. No. 4,950,685 coded in the trial as KC1 and listed in Table 7.
The formulations were then tested using a mini disc trial with results as disclosed in Table 9.

[9] = solubility studies of oxine copper using the invention; assay type: physicochemical
Description: We have carried out many solubility studies using the technology of this invention. For example, we are able to produce solutions stable at ambient temperature of oxine copper at concentrations greater than 100 grams per 200 mls of final product. Because the specific gravity of such solutions is approximately […] this yields a solution of oxine copper of 50 per cent weight/volume or more. This concentration is commercially viable to use and eliminates many of the potentially toxic or flammable formulation aids used in prior art solubilisation of oxine copper.

[Mg] [Magnesium]
pH complete precipitation [1]: >8.7 | pH initial precipitation [1]: 7.0

[Fe+3].[O-]c1cccc2cccnc12.[O-]c1cccc2cccnc12.[O-]c1cccc2cccnc12 [Iron]
pH complete precipitation [1]: 4.1-11.2 | pH initial precipitation [1]: 2.5 | pH for dissolution ([2]; transition metal phosphites): <3.5 | Solubility at pH = 7 ([2]; transition metal phosphites, pH = 7): Insoluble

Titanium
pH complete precipitation [1]: 4.8-8.6 | pH initial precipitation [1]: 3.6

CC(Cc1ccc(C(C)(C)C)cc1)CN1C[C@@H](C)O[C@@H](C)C1 (some centres unmarked) [fenpropimorph, dimethylethyl phenyl methylpropyl dimethylmorpholine]
Solubility ([3]; pH 4.4): 7300 µg/mL (≈ 24100 µM) | Solubility ([3]; pH 7): 4.3 µg/mL (≈ 14.2 µM) | Solubility ([3]; pH 9): 3.5 µg/mL (≈ 11.5 µM) | solubility achieved [4]: ≤ 10 % by weight

[Ni+2].[O-]c1cccc2cccnc12.[O-]c1cccc2cccnc12 [Nickel]
pH complete precipitation [1]: 4.6-10.0 | pH initial precipitation [1]: 3.5 | pH for dissolution [2]: <4.5

[Co+2].[O-]c1cccc2cccnc12.[O-]c1cccc2cccnc12 [Cobalt]
pH complete precipitation [1]: 4.9-11.6 | pH initial precipitation [1]: 3.6 | pH for dissolution ([2]; transition metal phosphites): <4.5

copper
pH complete precipitation [1]: >3.3 | pH initial precipitation [1]: 3.0 | Solubility at pH = 7 [2]: Insoluble | pH for dissolution ([2]; transition metal phosphites): <3.5

[Ca] [Calcium]
pH complete precipitation [1]: 9.2-12.7 | pH initial precipitation [1]: 6.8

COC(=O)Nc1nc2ccccc2[nH]1 [Carbendazim, methyl benzimidazoyl carbamate]
effect of adding a solution of higher pH [5]: immediate precipitation

Tungsten
pH complete precipitation [1]: 5.0-5.7 | pH initial precipitation [1]: 3.5

[O-]c1cccc2cccnc12.[O-]c1cccc2cccnc12.[Zn+2] [Zinc]
pH complete precipitation [1]: >4.4 | pH initial precipitation [1]: 3.3

Bismuth
pH complete precipitation [1]: 5.2-9.4 | pH initial precipitation [1]: 3.7

[Mo] [Molybdenum]
pH complete precipitation [1]: 3.6-7.3 | pH initial precipitation [1]: 2.0

arsenic
LD50 Rat [6]: 15 to 293 mg/kg

phosethyl-Al
stability to acids [7]: decomposed by acids

[Al+3].[O-]c1cccc2cccnc12.[O-]c1cccc2cccnc12.[O-]c1cccc2cccnc12 [Aluminium]
pH complete precipitation [1]: 4.7-9.8 | pH initial precipitation [1]: 2.9

mancozeb
stability to acids [7]: decomposed by acids

[O-]c1cccc2cccnc12.[O-]c1cccc2cccnc12.[Pb+2] [Lead]
pH complete precipitation [1]: 8.4-12.3 | pH initial precipitation [1]: 4.8

[Cd] [Cadmium]
pH complete precipitation [1]: 5.5-13.2 | pH initial precipitation [1]: 4.5

maneb
stability to acids [7]: decomposed by acids

OP(O)O [phosphorous acid]
fungicidal activity of phosphorous acid alone [8]: marginal improvement over the untreated control

[Mn+2] [Manganese]
pH complete precipitation [1]: 5.9-9.5 | pH initial precipitation [1]: 4.3 | Solubility at pH = 7 [2]: Insoluble | pH for dissolution ([2]; transition metal phosphites): <4.5

copper 8-hydroxyquinolinolate [oxine copper]
pH complete precipitation [1]: greater than 3.3 | solution concentration weight/volume ([9]; ambient temperature): ≥ 50 per cent weight/volume | concentration of solutions stable at ambient temperature ([9]; phosphorous acid solution): greater than 100 grams per 200 mls of final product | effect of adding a solution of higher pH [5]: immediate precipitation | Oral LD50 Rat ([6]; in vivo, po): 10,000 mg/kg
